Assays:
[1] = system: RAW264.7; assay: Induction of apoptosis in mouse RAW264.7 cells assessed as viable cells at 0.1 uM after 48 hrs by Annexin V-FITC/PI based flow cytometric analysis (RVB=94.1%); assay type: functional; conditions: read-out: Activity
[2] = system: RAW264.7; assay: Induction of cell cycle arrest in mouse RAW264.7 cells assessed as accumulation of cells in G2 phase at 0.25 uM incubated for 24 hrs by PI/RNase staining based flow cytometric analysis (RVB = 10.90%); assay type: functional
[3] = Acute toxicity in C57BL/6J mouse assessed as mortality at 1000 to 5000 mg/kg measured after 14 days; assay type: organism-based; conditions: in vivo, 336 h, dose 1000-5000 mg/kg, time 14 day
[4] = Acute toxicity in C57BL/6J mouse assessed as safety concern at 1000 to 5000 mg/kg measured after 14 days; assay type: organism-based; conditions: in vivo, 336 h, dose 1000-5000 mg/kg, time 14 day
[5] = system: RAW264.7; assay: Induction of apoptosis in mouse RAW264.7 cells assessed as apoptotic cells by measuring blue fluorescence after 48 hrs by Hoechst33342 staining based fluorescence microscopy; assay type: functional, cell-based; conditions: dose 0.1-1 µM, DDE = dose-dependent effect
[6] = system: RAW264.7; assay: Induction of apoptosis in mouse RAW264.7 cells assessed as early apoptotic cells at 0.1 uM after 48 hrs by Annexin V-FITC/PI based flow cytometric analysis (RVB=5.57%); assay type: functional
[7] = system: RAW264.7; assay: Induction of cell cycle arrest in mouse RAW264.7 cells assessed as accumulation of cells in G1 phase at 0.25 uM incubated for 24 hrs by PI/RNase staining based flow cytometric analysis (RVB = 55.06%); assay type: functional
[8] = system: NCI-H1581; assay: Cytotoxicity against human NCI-H1581 cells assessed as inhibition of cell growth incubated for 72 hrs by MTT assay; assay type: functional, cell-based; conditions: NCI-H1581, 72 h
[9] = system: RAW264.7; assay: Induction of apoptosis in mouse RAW264.7 cells assessed as late apoptotic cells at 0.5 uM after 48 hrs by Annexin V-FITC/PI based flow cytometric analysis (RVB=0.098%); assay type: functional
[10] = system: RAW264.7; assay: Induction of cell cycle arrest in mouse RAW264.7 cells assessed as accumulation of cells in G2 phase at 0.5 uM incubated for 24 hrs by PI/RNase staining based flow cytometric analysis (RVB = 10.90%); assay type: functional
[11] = system: RAW264.7; assay: Induction of cell cycle arrest in mouse RAW264.7 cells assessed as accumulation of cells in S phase at 0.25 uM incubated for 24 hrs by PI/RNase staining based flow cytometric analysis (RVB = 34.03%); assay type: functional

In the case of CCc1nc2c(C)cc(-c3ccc(CN4CCN(CCO)CC4)cc3)cn2c1NC(=O)OCc1cc(Cl)cc(Cl)c1, the viability at 0.1 µM [1] is reported as 92.8%, the Activity [2] is reported as 70.82% and the Activity [3] is reported as “Non-Toxic”. The Activity [4] was “Non-Toxic”, the Activity [5] was “Dde” and the Activity [6] was 6.04%. The Activity [7] was 10.61%, the IC50 [8] was 4.76 µM and the Activity [9] was 0.95%. It also gave an Activity [10] of 74.09% and an Activity [11] of 18.57%.

From ChEMBL document CHEMBL5154876, “Design, synthesis and promising anti-tumor efficacy of novel imidazo[1,2-a]pyridine derivatives as potent autotaxin allosteric inhibitors” (Eur J Med Chem, 2022)
